Assay results taken from patent US20240058318A1, “DEGRADING PKCB1 TO TREAT CANCER” (Mayo Foundation for Medical Education and Research, priority 2020, published 2024).

Key:
[1] = test system: unfolded protein response (UPR) mRNAs; test: qRT-PCR of UPR-associated mRNAs in MDAMB231 cells; assay type: cell-based; settings: 1 μM, 0-48 hours, fold relative to DMSO
Protocol: To evaluate the effect of PROTAC 7 (Pr-7) on expression of various proapoptotic polypeptides, triple negative MDAMB231 cells were treated with DMSO, 1 μM Pr-7, or 1 μM ENDX, and mRNA levels were assessed by qRT-PCR at 0-, 1-, 8-, 24-, and 48-hour time points.
Triple negative breast cancer MDA-MB-231 cells were cultured in phenol-red free DMEM/F12 medium supplemented with 10% FBS and 1% AA. Cells were plated at 1×10^6 cells per 10 cm dish. The next day, the cells were treated with DMSO, 1 μM Pr-7 or 1 μM ENDX for 1, 8, 24, and 48 hours, and were then processed for RNA and RIPA protein analysis.
In particular, total RNA from tissue samples and cell lines was extracted using the RNEASY® Plus mini kit (Qiagen; Hilden, Germany), cDNA was generated using a ISCRIPT™ cDNA synthesis kit (Bio-Rad; Hercules, CA) and qRT-PCR reactions were set up using PERFECTA® SYBR™ green fast mix reagents (Quanta BioSciences; Beverly, MA) and gene-specific primer sets (IDT; Coralville, IA). The forward and reverse primer sequences for the genes used in this analysis were obtained from the Harvard PrimerBank database. Amplification of HPRT and tubulin was used as an internal control. Relative expression between samples was calculated by the comparative Ct method.

[2] = test system: Rb-proficient (MDAMB231) and Rb-deficient (BT549 and MDAMB436) TNBC cells; test: CV proliferation assay, TNBC cells (statements across lines); assay type: cell-based; settings: MDAMB231 and BT549 cells (FIG. 4A and TABLE 1)
Protocol: (§1) Cell proliferation rates were determined using crystal violet assays. One thousand cells per well were plated in 96 well tissue culture plates and treated the following day with a bifunctional compound or control for 7 days in replicates of 8. Cells were fixed with 25% glutaraldehyde for 10 minutes with shaking, washed 5 times with distilled water, stained with a 1% crystal violet solution (solubilized in 25% methanol) for 10 minutes, washed again 5 times and allowed to dry. De-staining was performed using […] sodium citrate in 50% ethanol followed by quantification using a 96 well spectrophotometer set at an absorbance of 550 nm.
as §1, with “using CV” for “using crystal violet”, “assays. Two” for “assays. One”, “thousand (2000) or 4000” for “thousand”, “for 6” for “for 7”, “of 6.” for “of 8.”

SMILES: CC/C(=C(\c1ccc(O)cc1)c1ccc(OCCN(C)C(=O)COCCNC(=O)Cc2ccc3c(c2)CN(C2CCC(=O)NC2=O)C3=O)cc1)c1ccccc1 (centres unmarked) [TC-Pr-007]
- mRNA expression of UPR-associated genes [1]: increased mRNA expression for CHOP, MCL-1, PUMA, NOXA, and Xbp-1
- induction of apoptosis [2]: induced apoptosis
